Laboratory results taken from patent US20250049037A1, “HERBICIDAL ACTIVITY OF ALKYL PHOSPHINATES” (priority 2021, published 2025).

Columns and labels:
Type in all cases: in vivo
[1] = tested on: Alopercurus myosuroides (ALOMY); experiment: Greenhouse herbicidal test, post-emergence; conditions: postemergence, application rate 5 kg/ha, scale 0 to 100
Source text: (§1) The culture containers used were plastic flowerpots containing loamy sand with approximately 3.0% of humus as the substrate. The seeds of the test plants were sown separately for each species.
(§2) For the post-emergence treatment, the test plants were first grown to a height of 2 to 15 cm, depending on the plant habit, and only then treated with the active ingredients which had been suspended or emulsified in water. For this purpose, the test plants were either sown directly and grown in the same containers, or they were first grown separately as seedlings and transplanted into the test containers a few days prior to treatment.
(§3) Depending on the species, the test plants were kept at 10-25° C. or 20-35° C., respectively.
(§4) The test period extended over 2 to 4 weeks. During this time, the test plants were tended, and their response to the individual treatments was evaluated.
(§5) Evaluation was carried out using a scale from 0 to 100. 100 means no emergence of the test plants, or complete destruction of at least the aerial moieties, and 0 means no damage, or normal course of growth. A moderate herbicidal activity is given at values of 40 to 59, good herbicidal activity is given at values of more than 59 to 80 and a very good herbicidal activity is given at values of more than 80 to 100.

[2] = tested on: Apera spica-venti (APESV); experiment: Greenhouse herbicidal test, pre-emergence; conditions: application rate 5 kg/ha, scale 0 to 100
Source text: as §1
For the pre-emergence treatment, the active ingredients, which had been suspended or emulsified in water, were applied directly after sowing by means of finely distributing nozzles. The containers were irrigated gently to promote germination and growth and subsequently covered with transparent plastic hoods until the test plants had rooted. This cover caused uniform germination of the test plants, unless this had been impaired by the active ingredients.
as §3, §4, §5

Setaria viridis (SETVI) = experiment: Greenhouse herbicidal test, post-emergence; conditions: postemergence, application rate 5 kg/ha, scale 0 to 100
Source text: as §1, §2, §3, §4, §5

[3] = tested on: Echinocloa crus-galli (ECHCG); experiment: Greenhouse herbicidal test, post-emergence; conditions: postemergence, application rate 5 kg/ha, scale 0 to 100
Source text: as §1, §2, §3, §4, §5

[4] = tested on: Amaranthus retroflexus (AMARE); experiment: Greenhouse herbicidal test, post-emergence; conditions: postemergence, application rate 5 kg/ha, scale 0 to 100
Source text: as §1, §2, §3, §4, §5

CP(=O)(O)CCC(NC(N)=O)C(=O)O (centres unmarked) [Compound a]
herbicidal activity against ALOMY [1]: moderate (A moderate herbicidal activity is given at values of 40 to 59)

CP(=O)(O)CC[C@@H](NC(N)=O)C(=O)O [Compound b]
herbicidal activity against APESV [2]: good (good herbicidal activity is given at values of more than 59 to 80)

CP(=O)(O)CCC1NC(=O)NC1=O (centres unmarked) [Compound e]
herbicidal activity against SETVI (Setaria viridis (SETVI)): good (good herbicidal activity is given at values of more than 59 to 80)

CCCCOP(C)(=O)CCC(NC(N)=O)C(=O)O (centres unmarked) [Compound f, 4-[butoxy(methyl)phosphoryl]-2-ureido-butanoic acid]
herbicidal activity against ECHCG [3]: good (good herbicidal activity is given at values of more than 59 to 80)
herbicidal activity against AMARE [4]: good (good herbicidal activity is given at values of more than 59 to 80)
